Where no end group is shown, it is not given here.
Tests used:
[1] = system: PHB2/REA (Ser39) phosphorylation; assay: Okadaic acid treatment, immunoblotting of PHB2/REA phosphorylation, MCF-7; assay type: cell-based, human
Protocol: FIG. 31-2 is a diagram illustrating that phosphorylation of ERAP1 by PKA and PKB regulates phosphorylation of PHB2/REA (S39) through the PP1α activity. […] (S39) is caused. MCF-7 cells suppressed for expression of PKA by siRNA method, were stimulated with 10 nM E2 for 24 hours. In addition, MCF-7 cells were treated with H-89 for 30 minutes and washed with PBS. Then, immediately, the cells were stimulated with 10 nM E2 for 24 hours. […] Then, immediately, the cells were stimulated with 10 nM E2 for 24 hours. […] MCF-7 cells suppressed for expression of PKCα by siRNA method were treated with 10 μM ERAP1 peptide. Then, immediately, the cells were stimulated with 10 nM E2 for 24 hours. The cells were fractionated into cytoplasm and nuclear fractions by specific gravity centrifugation.

[2] = target: T1, binding of Flag-ERAP1 and His-PHB2/REA (Homo sapiens, UniProt Q99623); assay: Ni-resin pull-down and Western of His-PHB2/REA with Flag-ERAP1 cell lysate; details: pull-down, each concentration
T1 construct: human PHB2 (residues 77-244); thioredoxin (TrxA) (N); TEV protease cut site (N); made in house; host or cells: PHB2: Escherichia coli BL21 star (DE3); Flag-ERAP1: lysate of transiently transfected COS-7 cells
T1 sequence (Q99623 77-244): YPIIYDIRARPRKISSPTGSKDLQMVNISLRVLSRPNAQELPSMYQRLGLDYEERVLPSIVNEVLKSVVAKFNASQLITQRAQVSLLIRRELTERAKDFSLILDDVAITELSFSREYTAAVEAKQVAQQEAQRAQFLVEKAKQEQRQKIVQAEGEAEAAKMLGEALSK
Protocol: FIG. 2 is a diagram illustrating the results of immunoblotting analysis by which binding of the ERAP1-peptide to PHB2 was evaluated. The cell lysate of the COS-7 cells temporarily transfected with the Flag-tagged ERAP1 plasmid was incubated for 1 hour together with 6×His-tagged recombinant PHB2 protein (10 μg) and the ERAP1-peptide, the ERAP1-scramble peptide, or the ERAP1-mutant peptide in each concentration shown in the figure. Then, His-PHB2 was subjected to pull-down with Ni-NTA agarose (Ni-resin).
The partial sequence of human PHB2 (residues 77-244) was cloned into NcoI and XhoI sites of pTAT6 expression vector (see gift by Dr. Marko Hyvonen, University of Cambridge.: Peranen J, et al., (1996). Anal Biochem. 236, 371-373.) so as to become inframe with the hexahistidine tag, thioredoxin (TrxA) and TEV protease cut site (TEV site) at the amino terminal. The recombinant protein was expressed in Escherichia coli BL21 star (DE3) cell line (Invitrogen, Carlsbad, Calif.), and purified using Hi-Trap Kit (GE Healthcare). Finally, the recombinant protein was purified according to the protocol of the supplier using superdex 200 gel filtration column (GE Healthcare) with high performance liquid chromatography (HPLC). […]

[3] = system: PHB2/REA localization in MCF-7 cells; assay: Nuclear translocation of PHB2/REA (fractionation, immunoblotting, immunostaining); assay type: cell-based, human; details: 1 hour to 24 hours after administration
Protocol: FIG. 3-1 is a diagram illustrating that ERAP1-peptide treatment promotes nuclear translocation of PHB2. […] MCF-7 cells were stimulated for 24 hours with 10 μM ERAP1-peptide and/or 10 nM E2. The cells were fractioned into mitochondria, cytoplasm, and nuclear fractions by specific gravity centrifugation. Then, each fraction was subjected to immunoblotting analysis using an anti-ERAP1 antibody and an anti-PHB2 antibody. PRDX3, α/β-Tublin (Tublin) and lamin B are markers for mitochondria, cytoplasm, and nuclear fractions, respectively (upper panel). The protein content of each fraction was evaluated with Coomassie-stained SDS-PAGE gel (lower panel). […] KPL-3C cells were treated for 24 hours with 10 μM HA-tagged ERAP1-peptide and/or 10 nM E2. Then, the cells were fractionated into cytoplasm and nuclear fractions by specific gravity centrifugation. Then, which fraction was immunoprecipitated with anti-ERα antibody, an anti-ERAP1 antibody or an anti-PHB2 antibody. Then, immunoblotting was performed with each antibody shown in the figure (an anti-ERAP1 antibody, an anti-ERα antibody, an anti-PHB2 antibody and an anti-HA antibody (Peptide)). α/β-Tubulin (Tubulin) and Lamin B are markers for cytoplasm and nuclear fractions, respectively.
FIG. 4-1 is a diagram illustrating that the ERAP1-peptide promotes nuclear translocation of PHB2. (A) The upper panel illustrates representative images of stained immune cells, showing the intracellular localization of PHB2. MCF-7 cells were treated with 10 μM ERAP1-peptide or ERAP1-scramble peptide. Subsequently, the cells were treated with 10 nM E2. After the immobilization, the cells were subjected to immunofluorescent staining using an anti-PHB2 antibody and DAPI (for discriminating the nucleus).
FIG. 4-2 is a diagram illustrating that the ERAP1-peptide promotes nuclear translocation of PHB2. (B) is a diagram illustrating the results of immunoblotting analysis by which the intracellular localization of PHB2 was detected, MCF-7 cells were treated with the ERAP1-peptide or the ERAP1-scramble peptide. Subsequently immediately, the cells were treated with 10 nM E2. The cells were fractionated into cytoplasm and nuclear fractions after 1 hour or 24 hours. Each fraction was immunoprecipitated with anti-ERα antibody, an anti-ERAP1 antibody or a PH82 antibody. […]
MCF-7 cells were seeded in an 8-well chamber (Laboratory-Tek II Chamber Slide System, Nalgen Nunc International, Naperville, Ill., USA) in 5×10^4 cells/well, and cultured under estrogen-free condition for 24 hours. […] The fluorescence image was obtained under Olympus IX71 microscope (Tokyo, Japan). […]

[4] = system: transcriptional activity of ERα (ERE); assay: ERE-luciferase reporter assay in MCF-7 cells; assay type: cell-based, human; details: 10 nM E2 24 hours
Protocol: FIG. 3-2 is a diagram illustrating promotion effect of PHB2 nuclear translocation and suppression effect of the transcriptional activation of ER by ERAP1-peptide treatment. (C) illustrates representative images of stained immune cells, showing the localization of the ERAP1-peptide (HA-tagged ERAP1-peptide) and PHB2. MCF-7 cells were treated with 10 μM HA-tagged ERAP1-peptide for 24 hours in the presence or in the absence of 10 nM E2. After the immobilization, the cells were subjected to immunonfluorescent staining using an anti-HA antibody, an anti-PHB2 antibody and DAPI (for discriminating the nucleus). The arrow indicates the nuclear-translocated ERAP1-peptide. […] Then, immediately, the cells were stimulated with 10 nM E2 for 24 hours. TAM indicates the tamoxifen treatment.
FIG. 3-3 is as diagram illustrating the results of the luciferase assay by which the inhibition effect of the ERAP1-peptide was evaluated. MCF-7 cells temporarily transfected with an ERE-luciferase reporter vector (F) or an AP-1-luciferase reporter vector (F) were treated with the ERAP1-peptide, the scramble peptide or the mutant peptide in the concentrations shown in the […]. Then, immediately, the cells were stimulated with 10 nM E2 for 24 hours. TAM indicates the tamoxifen treatment.
FIG. 4-3 is a diagram illustrating that the ERAP1-peptide promotes nuclear translocation of PHB2. (C) and (D) are figures that show the results of the luciferase assay by which the inhibition effect of the ERAP1-peptide on the ERα transcriptional activity was evaluated. MCF-7 cells temporarily transfected with an ERE-luciferase reporter vector (C) or an AP-1-luciferase reporter vector (D) were treated with the ERAP1-peptide in the concentrations shown in the figure or 10 nM tamoxifen. Then, immediately, the cells were stimulated with 10 nM E2 thr 24 hours.
For ERE reporter assay, MCF-7 cells were transfected with ERE reporter (SABiosciences, Frederick, Md., USA) in accordance with the instruction of the manufacturer. For AP-1 reporter assay, MCF-7 cells were transfected with AP-1 reporter (mouse IL-11 promoter comprising two tandem AP-1 sites subcloned into PGL2-basic vector), c-fos, c-Jun and pRL-TK as an internal standard. After 16 hours from the transfection, the culture medium was exchanged with an assay culture medium (Opti-MEM, 10% FBS, 0.1 mM NEAA, 0.1 mM Sodium pyruvate and 10 μg/ml insulin) After 24 hours from the transfection, the cells were treated with E2 and/or the ERAP1-peptide or 24 hours. The cells were harvested, and the activities of luciferase and Renilla-luciferase were evaluated using Promega dual luciferase reporter assay (Tokyo, Japan). In consideration of the transfection efficiency, all of the data were standardized by the activity of Renilla-luciferase.

C=C1[C@@H](O)[C@@H]2O[C@]3(CC[C@H](/C=C/[C@@H](C)[C@@H]4CC(C)=C[C@@]5(O[C@H](C[C@@](C)(O)C(=O)O)CC[C@H]5O)O4)O3)CC[C@H]2O[C@@H]1[C@@H](O)C[C@H](C)[C@H]1O[C@@]2(CCCCO2)CC[C@H]1C [okadaic acid]
E2-dependent PHB2/REA phosphorylation (Ser39) ([1]; 20 nM of okadaic acid): recognized to be recovered
E2-dependent PHB2/REA phosphorylation (Ser39) ([1]; 40 μM): confirmed to decrease

ERAP1-HA-peptide: ERAP1-peptide to which HA tag was added (RRRRRRRRRRRQMLSDLTLQLRQR; also: HA tag added, place not given here)
direct binding to His-PHB2/REA [2]: directly bound to His-PHB2/REA, depending on the concentration
inhibition of binding of Flag-ERAP1 and His-PHB2/REA [2]: competitively inhibited
nuclear translocation of PHB2/REA, temporal [3]: directly bound to PHB2/REA and was nuclear-translocated at the same time
transcriptional activity of ERα in ERE [4]: suppressed the transcriptional activity of ERα

Reference: patent US9725490B2, “ERAP1-derived peptide and use thereof” (TOKUSHIMA UNIVERSITY, priority 2011, dated 2017)
